Values quoted from earlier work in publication PMC9014651 (Bioorganic Chemistry, 2022).

Tested on: coronavirus variants (B.1.1.7 and B.1.351)
Conditions: cited from earlier work

In the case of `Cc1ccc(NC(=O)c2ccc(CN3CCN(C)CC3)cc2)cc1Nc1nc(-c2cccnc2)cs1` [Masitinib], the “Effect on tested coronavirus variants in vitro” value is listed as “effective”.
